Measurements: patent US20140148446A1, “COMPOUNDS THAT ENABLE ALTERNATIVE MITOCHONDRIAL ELECTRON TRANSFER” (University of North Texas Health Science Center, priority 2010, published 2014)

Columns and labels:
HT-22 cells [1] = experiment: Protection against ROS production induced by glutamate in HT-22 cells; type: cell-based; settings: Mus musculus
HT-22 cells [2] = experiment: Mitochondrial superoxide and cellular ROS analysis, rotenone treated cells; type: cell-based; settings: MB 100 ng/ml
Method: Mitochondrial specific superoxide and cellular ROS were measured with specific fluorescent probes. Briefly, HT-22 cells were treated with vehicle or 2 μM rotenone, with or without 100 ng/ml MB for 4 hr. The cells were dissociated, then incubated in pre-warmed PBS containing 0.5% BSA and H2DCFDA (Cellular ROS) or MitoSox (mitochondrial superoxide) for 15 min at 37° C., followed by washing with PBS. The cells were then resuspended in supplemented RPMI-1640 for further incubation. The cells were analyzed with FITC channel (Cellular ROS), or PE channel (MitoSox) using a BD™ LSRII flow cytometer.

HT-22 cells [3] = experiment: Protection against mitochondrial membrane potential collapse induced by glutamate in HT-22 cells; type: cell-based; settings: Mus musculus
[4] = tested on: preclinical animal model of Alzheimer's disease; experiment: Preclinical animal model of Alzheimer's disease, MB supplemented diet; type: in vivo; settings: long term feeding of MB supplemented diet
HT-22 cells [5] = experiment: Cell viability assay, rotenone induced cytotoxicity; type: cell-based; settings: rotenone 8 μM, 100 ng/ml MB co-treatment; vehicle 25.4±1.6%
Method: Then cells were treated with vehicle (DMSO), rotenone (2-8 μM), antimycin A (1-10 μg/ml), or glucose oxidase (2-10 mU) in the presence or absence of various concentrations of MB for 24 hours. At the end of the 24 hours, the medium was removed and the plates were rinsed with PBS and incubated with 10 μM calcein-AM (Invitrogen, Carlsbad, Calif.) in PBS for 20 minutes. Fluorescence was determined using a TECAN M200 microplate reader (San Jose, Calif.) with an excitation/emission set at 485/530 nm. Cell culture wells treated with bleach before rinsing were used as blank.

mitochondrial complex I = experiment: Mitochondrial complex I activity assay (NADH dehydrogenase); type: biochemical, rat; settings: in place of CoQ1
Method: (§1) Fresh rat heart was removed and placed in ice-cold mitochondrial isolation buffer containing 210 mM mannitol, 70 mM sucrose, 5 mM HEPES, and 1 mM EDTA, pH 7. The heart was homogenized immediately, and the mitochondrial fraction was isolated by differential centrifugation as described previously (Trounce et al., 1996). Mitochondria were stored at −80° C. until subsequent analysis.
(§2) All mitochondrial activity assays were performed according to previous publications with minimal modifications for complex I (Lenaz et al., 2004), complex I-III, complex II, complex III, and II-III (Trounce et al., 1996). […] Complex I activity was monitored by adding NADH to the mix with or without rotenone/antimycin A. The final data were normalized to blank values at time zero. The reaction was monitored in a kinetic spectrophotometer at 340 nm. Complex I activity was measured in arbitrary units and normalized to control levels for statistical analysis. Isolated mitochondria equivalent to 40-200 μg mitochondrial protein was used for each assay, except for assays with inhibitors, when larger amount of mitochondria (3 to 5 folds) were used to ensure that inhibition was distinguishable. Final data were normalized to control levels. For complex I-III activity, the reaction was initiated with the addition of NADH, cyt c was used as final substrate and its reduction was monitored at 550 nm. For assay of complex II-III activity, succinate was added instead of NADH, and the electron transfer to cyt c was performed according to previous publications (Atamna et al., 2008). To test whether the electrons from the reduced form of MB (MBH2) can be transferred to cyt c in mitochondrial lysate, we added 10 μM 2,7-dichlorofluorescin (DCFH, Invitrogen, Carlsbad, Calif.) to the reaction system. Free radicals convert non-fluorescent DCFH to highly fluorescent DCF (Ex, 488 nm, and Em, 530 nm). In the presence of cyt c, which accepts electrons from MBH2, conversion of DCFH to DCF is decreased.

HT-22 cells [6] = experiment: Protection against cell death (cell viability) induced by glutamate in HT-22 cells; type: cell-based; settings: Mus musculus
Method: HT-22 cells (gift from Dr. David Schubert, Salk Institute, San Diego, Calif.) were plated at 4,000 cells per well in 96 well plates and cultured over night. […] At the end of the 24 hours, the medium was removed and the plates were rinsed with PBS and incubated with 10 μM calcein-AM (Invitrogen, Carlsbad, Calif.) in PBS for 20 minutes. […] Cell culture wells treated with bleach before rinsing were used as blank.

[7] = pH 7.0; cited from earlier work
FRDA fibroblast = experiment: BSO induced FRDA fibroblast cell death; type: cell-based
[8] = tested on: rotenone induced rat model of PD
Method: (§4) Rats were assigned to three groups: control animals received vehicle infusion and daily saline injection (Veh/Sal N=6-8); a second group received rotenone infusion at the dose of 5 mg/kg/day and daily saline injection (ROT/Saline N=8-11); and the third group received rotenone infusion (5 mg/kg/day) and MB injection at the dose of 500 μg/kg/day (ROT/MB N=8-10). Vehicle or rotenone was infused via Alzet osmotic mini pumps that were filled with vehicle or rotenone dissolved in vehicle (equal volumes of dimethylsulfoxide and polyethylene glycol). Pumps containing vehicle or rotenone were sterilized with UV irradiation and implanted subcutaneously on the back. Intraperitoneal injections were administered with normal saline or MB, 500 μg/kg/day, diluted in normal saline to 500 μl of final volume. Rats were sacrificed on day 8 at four hours after last dose of MB or saline treatment.
After completion of neurological assessments and behavioral tests, rats were killed on the 8th day of rotenone infusion under anesthesia induced by xylazine (20 mg/kg, i.p.) and ketamine (100 mg/kg, i.p.). All osmotic pumps were checked for the residual liquid to ensure proper drug delivery. One hemisphere was fixed by 4% paraformaldehyde in phosphate buffer for 48 hr until processing for sectioning. The other hemisphere was snap-frozen in liquid nitrogen, and kept at −80° C. until extraction for biochemical analysis.
Rat hemispheres were sequentially incubated in 10%, 20% and 30% sucrose over night. The brains were then frozen in optimal cutting temperature) compound (VWR, San Francisco Calif.) and sectioned in the coronal plane with a cryostat to produce 20 μm floating sections. For single immunohistochemistry studies, 20-μm sections were blocked with 5% normal goat serum and incubated in primary antibodies at 4° C. over night. […] Double stained sections were examined with conventional fluorescence microscopy, and images were captured on a Zeiss microscope linked to an image analysis system with selective filter sets to visualize FITC, rhodamine, and DAPI separately. […]

[9] = tested on: mitochondrial complex I-III; type: biochemical, rat
Method: as §1, §2

mitochondrial complex II = biological target: T1, mitochondrial complex II (Rattus norvegicus, UniProt P21913+Q641Z9+Q6PCT8+Q920L2); experiment: Mitochondrial complex II activity assay; type: biochemical; settings: data not shown
T1 construct: the mitochondrial fraction was isolated by differential centrifugation; from tissue; host or cells: rat heart mitochondria
T1 sequence (Q920L2 35-656): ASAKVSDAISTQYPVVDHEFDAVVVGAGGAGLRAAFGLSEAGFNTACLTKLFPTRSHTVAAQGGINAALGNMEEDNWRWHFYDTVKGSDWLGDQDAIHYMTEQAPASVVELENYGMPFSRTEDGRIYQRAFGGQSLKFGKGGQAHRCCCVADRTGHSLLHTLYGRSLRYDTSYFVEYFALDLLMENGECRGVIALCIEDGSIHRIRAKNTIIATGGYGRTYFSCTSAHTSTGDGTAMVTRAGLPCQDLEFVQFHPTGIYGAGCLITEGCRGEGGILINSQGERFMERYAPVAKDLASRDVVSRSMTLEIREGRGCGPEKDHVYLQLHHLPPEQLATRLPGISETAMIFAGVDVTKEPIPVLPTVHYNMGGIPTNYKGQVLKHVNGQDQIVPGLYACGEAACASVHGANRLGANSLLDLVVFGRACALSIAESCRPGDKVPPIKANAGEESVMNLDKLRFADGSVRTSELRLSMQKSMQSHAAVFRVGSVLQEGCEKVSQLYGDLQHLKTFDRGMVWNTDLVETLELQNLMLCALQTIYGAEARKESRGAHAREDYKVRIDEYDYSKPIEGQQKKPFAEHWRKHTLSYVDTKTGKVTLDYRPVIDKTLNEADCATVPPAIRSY
T1 sequence (P21913 31-282): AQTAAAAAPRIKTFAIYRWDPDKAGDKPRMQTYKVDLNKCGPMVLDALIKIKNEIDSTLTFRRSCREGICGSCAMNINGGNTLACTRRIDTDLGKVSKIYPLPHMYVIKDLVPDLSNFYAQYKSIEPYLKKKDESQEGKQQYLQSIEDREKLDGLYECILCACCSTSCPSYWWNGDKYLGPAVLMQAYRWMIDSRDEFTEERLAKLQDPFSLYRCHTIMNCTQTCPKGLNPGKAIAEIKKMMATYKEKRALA
T1 sequence (Q641Z9 1-169): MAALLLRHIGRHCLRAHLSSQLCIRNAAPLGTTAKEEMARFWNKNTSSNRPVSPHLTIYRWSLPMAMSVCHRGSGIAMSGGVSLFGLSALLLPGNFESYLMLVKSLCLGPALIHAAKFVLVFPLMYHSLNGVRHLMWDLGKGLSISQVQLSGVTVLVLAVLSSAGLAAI
T1 sequence (Q6PCT8 57-159): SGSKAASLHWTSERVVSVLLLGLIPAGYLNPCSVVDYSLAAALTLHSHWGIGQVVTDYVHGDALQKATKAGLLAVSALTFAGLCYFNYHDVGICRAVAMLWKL
Method: as §1
(§3) All mitochondrial activity assays were performed according to previous publications with minimal modifications for complex I (Lenaz et al., 2004), complex I-III, complex II, complex III, and II-III (Trounce et al., 1996). […] Complex I activity was monitored by adding NADH to the mix with or without rotenone/antimycin A. The final data were normalized to blank values at time zero. The reaction was monitored in a kinetic spectrophotometer at 340 nm. Complex I activity was measured in arbitrary units and normalized to control levels for statistical analysis. Isolated mitochondria equivalent to 40-200 μg mitochondrial protein was used for each assay, except for assays with inhibitors, when larger amount of mitochondria (3 to 5 folds) were used to ensure that inhibition was distinguishable. Final data were normalized to control levels. For complex I-III activity, the reaction was initiated with the addition of NADH, cyt c was used as final substrate and its reduction was monitored at 550 nm. […]

HT-22 cells [10] = experiment: Seahorse XF-24 metabolic flux analysis (OCR, ECAR); type: cell-based
Method: HT22 cells were plated at 8,000/well and cultured on Seahorse XF-24 plates. Cells were grown in previously described medium and environments for 24 hr. On the day of metabolic flux analysis, cells were changed to unbuffered DMEM (DMEM base medium supplemented with 25 mM glucose, 10 mM sodium pyruvate, 31 mM NaCl, 2 mM GlutaMax, pH 7.4) and incubated at 37° C. in a non-CO2 incubator for 1 hr. All medium and injection reagents were adjusted to pH 7.4 on the day of assay. Four baseline measurements of oxygen consumption rate (OCR) and extracellular acidification rate (ECAR) were taken before sequential injection of mitochondrial inhibitors. Specific readings indicated by the arrows were taken after each addition of mitochondrial inhibitor before injection of the subsequent inhibitors. The mitochondrial inhibitors used were oligomycin (10 μM), FCCP (1 μM), and rotenone (5 μM). OCR and ECAR were automatically calculated and recorded by the Seahorse XF-24 software. After the assays, plates were saved and protein readings were measured for each well to confirm equal cell numbers per well. The percentage of change compared with the basal rates was calculated as the value of change divided by the average value of baseline readings.

[11] = tested on: transient MCA occlusion in rats; experiment: Transient focal cerebral ischemia (MCA occlusion); type: in vivo; settings: rat, single dosage of MB at 500 μg/kg, 24 hr after reperfusion
Text: Transient focal cerebral ischemia was induced by intraluminal filament MCA occlusion (Liu et al., 2005). Briefly, the left internal carotid artery (ICA) was exposed, and a 3-0 monofilament nylon suture was introduced into the ICA lumen through a puncture and gently advanced to the distal ICA until proper resistance was felt. After 1 hr, the suture was withdrawn for reperfusion. At 24 hr after reperfusion, the animals were sacrificed and the brain harvested. The brains were sectioned at 3, 5, 7, 9, 11, 13 and 15 mm posterior to the olfactory bulb. Each slice was incubated 30 min in 2% 2,3,5-triphenyltetrazolium chloride (TTC) in physiological saline, then fixed in 10% formalin. The stained slices were digitally photographed for measurement of ischemic lesion volume (Image-Pro Plus 4.1).

[12] = tested on: rotenone induced rat model of PD; experiment: Rotenone model of PD: body weight, neurological and behavioral assessment; type: in vivo; settings: MB 500 μg/kg/day i.p.
Method: as §4
The accelerating rotarod, a motor driven treadmill (Omnitech Electronics, Columbus, Ohio) measures running coordination and motor performance. The rotor consisted of a nylon cylinder with a 7 cm diameter mounted horizontally 35.5 cm above a padded surface. On a given trial, the rats were placed on the cylinder, the cylinder was rotated, and a timer switch was simultaneously activated. Acceleration continued from 0 to a maximum of 44 rpm until animals were unable to stay on top of the rotating rod and fell to the padded surface. […] When the rat landed on the surface, a photosensitive switch was tripped and the timer stopped. Rats were subjected to this test two sessions a day, three trials per session, for 7 sessions. A 20-minute resting period was given between each trial. Animals were given at least two hours break time between sessions each day. Retention times on the rotating treadmill were recorded and plotted for analysis.
Neurological assessment was performed by three evaluators blind to treatment conditions. The evaluators were initially trained until they produced consistent scores when evaluating rats in these tests. Subsequently, experimental subjects were randomized and presented to the evaluators individually. For each session, which consisted of three trials, an individual evaluator scored a rat in only one trial; thus, the final score for a session for each animal was the average score of the three evaluators. The category included: tremor; locomotion; bradykinesia; hypokinesia; posture; and gross motor skills.
Catalepsy was measured by standard bar test and grid test adapted from previous publication. For bar test, the rats were placed with both front paws grasp on a horizontal bar which was 9 cm above the surface. The time, each animal took to remove one paw from the bar was manually measured by a stopwatch. For grid test, rats were placed on a vertical wire grid (25.5 cm width and 44 cm high with a space of 1 cm between each wire) and catalepsy was determined by the length of time the animals maintained all four paws on the grid using a stopwatch. The maximum descent latency was set at 300 seconds for the bar test and 60 seconds for grid test.
For gait analysis, the fore and hind paws of each rat were painted with blue and red dye, respectively. The animals were allowed to walk across an absorbent paper covered straight alley runway (150 cm long, 20 cm wide, opaque walls 20 cm tall) into a dark compartment. Before the test, animals were put in the dark compartment for 2 minutes to habituate to the environment and 3 pre-training runs were conducted for all rats. Three trials were conducted to obtain clear footprints for each animal. Prolonged stop or turning backward in the runway was considered failed trials. The distance of individual steps were analyzed by two independent blinded observers.

[13] = tested on: mitochondrial complex III; experiment: Mitochondrial complex III activity assay; type: biochemical, rat; settings: data not shown
Method: as §1, §3

In the case of `CN(C)c1ccc2nc3ccc(=[N+](C)C)cc-3sc2c1` [methylene blue], the EC50 (HT-22 cells [1]) is reported as 20.4 nM, the “Increase of mitochondrial superoxide (MitoSox probe)” value (HT-22 cells [2]) is reported as “almost completely blocked” and the “Increase of total cellular ROS (DCFH2-DA)” value (HT-22 cells [2]) is reported as “almost completely blocked”. The EC50 (HT-22 cells [3]) was 17.7 nM, the Cognitive functions [4] was “improves cognitive functions” and the Maximal performance [4] was “improves maximal performance”. The Cell survival (HT-22 cells [5]) was 60.5±4.5%, the “Substrate of NADH dehydrogenase in complex I (accepts electrons from NADH)” value (mitochondrial complex I) was “can completely replace CoQ1 as a direct substrate” and the EC50 (HT-22 cells [6]; HT-22, glutamate toxicity, HT22 cells, read-out: EC50 against glutamate toxicity in HT22 cells) was 0.176 nM. The EC50 (HT-22 cells [6]; glutamate, HT-22 cells, read-out: Protection against cell death (EC50)) was 18.8 nM, the Redox potential [7] was 11 mV and the “Damaging effects of BSO (cell death)” value (FRDA fibroblast) was “greatly ameliorates”. The “TH-positive cells and nerve fiber in SNC and VTN” value ([8]; ROT/MB animals) was “a sufficient amount of TH-positive cell and nerve fiber were observed”, the “Fluoro-jade B-positive TH neurons” value ([8]; ROT/MB group, 4 out of 11 ROT/Sal animals positive) was “not found” and the “Ubiquitin positive inclusion bodies” value ([8]; ROT/MB group, 6 out 11 ROT/Sal rats positive) was “not found”. The “Complex I-III activity, % of the control level” value ([9]; 1 μg/ml MB, in the presence of antimycin A) was 674±99%, the “Complex I-III activity, % of control” value ([9]; 1 μg/ml MB, in the presence of rotenone) was 118.1±6.4% and the “Increase of complex I-III activity” value ([9]; increasing doses of MB (0.1-1 μg/ml)) was “up to nine-fold increase”. For the same compound, the “Effect on complex II activity alone” value (mitochondrial complex II) was “no significant effect”, the “Extracellular acidification rate (ECAR)” value (HT-22 cells [10]; 10 μg/ml MB, two hour incubation, vehicle 44±4) was 9±3 mPH/min and the “Oxygen consumption rate (OCR)” value (HT-22 cells [10]; 10 μg/ml MB, two hour incubation, vehicle 264±10) was 594 ± 19 pmol/min. For the same compound, the “Rotenone induced OCR inhibition” value (HT-22 cells [10]; rotenone 5 μM injection) was “dose-dependently attenuated”, the Ischemic lesion volume [11] was “significantly reduced” and the “Catalepsy, bar test descent latency” value [12] was “completely reversed”. For the same compound, the “Catalepsy, grid test latency to fall” value [12] was “attenuated”, the “Neurological scores (randomized blinded assessment)” value [12] was “significantly improved” and the Rotarod performance deficits [12] was “almost completely prevented”. The “Rotenone induced body weight loss” value [12] was “attenuated”, the “Stride length in gait analysis” value [12] was “improved” and the “Effect on complex III activity alone” value [13] was “no significant effect”.
